Columns and labels:
[1] = molecular target: T1, NOX2 (Homo sapiens, UniProt P04839); test: NOX2 HL60 cell-based assay (PMA oxidative burst, L012 chemiluminescence); details: DMSO-differentiated HL-60 cells, PMA-stimulated; for inhibition at 0.1 µM: HL-60, 100 nM
T1 construct: HL-60 cells, rich in NOX2 expression; endogenous in cells; host or cells: DMSO-differentiated HL-60
T1 sequence (P04839 2-570 limits assumed): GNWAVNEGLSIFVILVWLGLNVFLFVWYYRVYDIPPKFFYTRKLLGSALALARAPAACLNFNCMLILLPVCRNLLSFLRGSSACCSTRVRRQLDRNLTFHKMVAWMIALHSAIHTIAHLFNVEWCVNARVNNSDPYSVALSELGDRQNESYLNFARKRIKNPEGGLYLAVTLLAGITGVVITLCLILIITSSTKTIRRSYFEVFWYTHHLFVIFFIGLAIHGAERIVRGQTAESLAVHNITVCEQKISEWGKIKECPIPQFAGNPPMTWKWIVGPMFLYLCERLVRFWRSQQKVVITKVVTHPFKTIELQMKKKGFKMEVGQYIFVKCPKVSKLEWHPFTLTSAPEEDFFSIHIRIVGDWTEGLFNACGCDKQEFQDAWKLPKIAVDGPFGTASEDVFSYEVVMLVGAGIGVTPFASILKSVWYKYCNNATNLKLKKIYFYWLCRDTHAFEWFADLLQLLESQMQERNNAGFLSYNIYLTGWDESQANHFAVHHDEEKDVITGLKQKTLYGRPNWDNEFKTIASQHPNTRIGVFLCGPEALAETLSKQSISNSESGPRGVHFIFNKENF
T1 sequence (P13498 2-195 partner limits assumed): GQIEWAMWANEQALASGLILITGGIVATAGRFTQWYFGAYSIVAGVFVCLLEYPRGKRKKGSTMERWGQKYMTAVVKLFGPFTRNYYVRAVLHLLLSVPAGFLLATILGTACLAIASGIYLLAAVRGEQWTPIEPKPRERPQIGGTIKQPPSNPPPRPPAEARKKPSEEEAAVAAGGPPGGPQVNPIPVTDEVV
Method in brief: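 DMSO-differentiated HL-60 cells (2.5×10^5/well) with 100 μM L012 preincubated with compound 30-60 min at 37 °C in the dark. Oxidative burst triggered by 10 ng/mL PMA; superoxide chemiluminescence read every 5 min for 60 min.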

[2] = molecular target: T2, NOX4 (Homo sapiens, UniProt Q9NPH5); test: NOX4 HEK293 overexpression cell-based assay (Amplex Red H2O2); details: HEK293 cells stably overexpressing NOX4, DMSO = 0, GKT137831 = 100
T2 construct: expressed in transfected cells
T2 sequence (Q9NPH5 1-578): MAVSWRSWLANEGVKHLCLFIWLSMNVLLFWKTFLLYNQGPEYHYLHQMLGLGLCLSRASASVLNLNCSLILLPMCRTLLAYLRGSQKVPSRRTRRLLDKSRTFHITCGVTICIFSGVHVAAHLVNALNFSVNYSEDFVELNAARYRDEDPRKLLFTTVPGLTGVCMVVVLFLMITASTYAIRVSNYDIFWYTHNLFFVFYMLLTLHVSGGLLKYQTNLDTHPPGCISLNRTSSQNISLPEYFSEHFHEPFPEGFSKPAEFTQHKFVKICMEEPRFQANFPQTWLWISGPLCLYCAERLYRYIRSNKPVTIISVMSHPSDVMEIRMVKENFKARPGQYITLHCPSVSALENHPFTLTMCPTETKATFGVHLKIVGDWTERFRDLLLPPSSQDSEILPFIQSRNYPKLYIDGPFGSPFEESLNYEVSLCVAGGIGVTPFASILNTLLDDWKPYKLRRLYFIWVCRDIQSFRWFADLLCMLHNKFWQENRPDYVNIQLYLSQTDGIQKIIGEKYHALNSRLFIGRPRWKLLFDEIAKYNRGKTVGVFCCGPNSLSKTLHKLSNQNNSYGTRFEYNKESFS
T2 sequence (P13498 2-195 partner limits assumed): T1 sequence (P13498 2-195 partner limits assumed)
Method in brief: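 HEK293 cells stably overexpressing NOX4 (3×10^4) preincubated 30 min at 37° C with compound in KRPG buffer, then mixed with Amplex Red reagent solution (50 μM Amplex Red, 0.1 units/mL HRP) for 90 min at 37° C in the dark. Supernatant fluorescence read at 530/590 nm; DMSO set to 0 and GKT137831 to 100.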

[3] = molecular target: T3, NOX1 (Homo sapiens, UniProt Q9Y5S8); test: NOX1 HT29 cell-based assay (luminol/HRP luminescence); details: HT29 cells, DMSO = 0%, GKT137831 = 100%
T3 construct: endogenous in cells; host or cells: HT29
T3 sequence (Q9Y5S8 1-564): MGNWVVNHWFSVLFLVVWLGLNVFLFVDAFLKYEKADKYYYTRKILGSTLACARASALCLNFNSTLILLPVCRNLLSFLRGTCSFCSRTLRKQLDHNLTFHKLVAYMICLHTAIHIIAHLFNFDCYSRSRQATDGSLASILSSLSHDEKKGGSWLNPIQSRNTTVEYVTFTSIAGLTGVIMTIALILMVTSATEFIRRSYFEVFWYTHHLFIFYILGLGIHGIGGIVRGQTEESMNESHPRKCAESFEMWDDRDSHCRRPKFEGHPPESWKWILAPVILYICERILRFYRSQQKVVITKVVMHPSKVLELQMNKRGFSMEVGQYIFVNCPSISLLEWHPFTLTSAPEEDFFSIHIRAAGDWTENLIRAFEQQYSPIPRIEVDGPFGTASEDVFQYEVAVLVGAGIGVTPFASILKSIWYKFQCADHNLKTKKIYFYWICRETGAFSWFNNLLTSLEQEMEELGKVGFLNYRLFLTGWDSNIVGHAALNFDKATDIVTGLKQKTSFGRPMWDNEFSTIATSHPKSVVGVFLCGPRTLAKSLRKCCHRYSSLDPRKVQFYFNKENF
T3 sequence (P13498 2-195 partner limits assumed): T1 sequence (P13498 2-195 partner limits assumed)
Method in brief: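 HT29 cells (1-2×10^5 per well) pretreated 30-60 min at 37 °C with compound at 100 nM and 1000 nM final, in duplicate, 0.1% DMSO. ROS read as luminol (100 μM)/HRP (0.4 U) luminescence. Activity normalised to DMSO (0%) and GKT137831 (100%).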

SMILES | % Inhibition NOX2 ([1]; 100 nM, 0.1 µM) | % Inhibition NOX2 ([1]; 1000 nM, 1 µM) | % Inhibition NOX4 ([2]; 100 nM) | % Inhibition NOX4 ([2]; 1000 nM) | % Inhibition NOX1 ([3]; 100 nM) | % Inhibition NOX1 ([3]; 1000 nM) | % Inhibition NOX2 ([1]; 1000 nM) | inhibition at 0.1 µM [1] [%] | % Inhibition NOX2 ([1]; 100 nM, acetate, 0.1 µM) | % Inhibition NOX2 ([1]; 1000 nM, acetate, 1 µM) | % Inhibition NOX2 ([1]; 100 nM) | % Inhibition NOX4 ([2]; 100 nM, 0.1 µM) | inhibition at 0.1 µM ([3]; HT-29, 100 nM) [%] | % Inhibition NOX4 ([2]; 1000 nM, 1 µM)
COc1cc2[nH]c(-c3ccccc3C(F)(F)F)c(O)c(=O)c2cc1OC [Compound 41, 3-hydroxy-6,7-dimethoxy-2-(2-(trifluoromethyl)phenyl) quinolin-4(1H)-one] | C (the percent of inhibition of NOX by the compounds ranges from 2000 to 49%) | A (the percent of inhibition of NOX by the compounds is larger than or equals to 80%) | B (the percent of inhibition of NOX by the compounds ranges from 50% o to 79% o) | B (the percent of inhibition of NOX by the compounds ranges from 50% o to 79% o) | A (the percent of inhibition of NOX by the compounds is larger than or equals to 80%) | A (the percent of inhibition of NOX by the compounds is larger than or equals to 80%) | – | – | – | – | – | – | – | –
COc1cc2[nH]c(-c3ccccc3C(F)(F)F)c(O)c(=O)c2cc1OC.Cl [Compound 42, 3-hydroxy-6,7-dimethoxy-2-(2-(trifluoromethyl)phenyl) quinolin-4(1H)-one hydrochloride] | – | – | B (the percent of inhibition of NOX by the compounds ranges from 50% o to 79% o) | B (the percent of inhibition of NOX by the compounds ranges from 50% o to 79% o) | A (the percent of inhibition of NOX by the compounds is larger than or equals to 80%) | A (the percent of inhibition of NOX by the compounds is larger than or equals to 80%) | A (the percent of inhibition of NOX by the compounds is larger than or equals to 80%) | 50 to 79 | – | – | – | – | – | –
COc1cc2[nH]c(-c3ccccc3C(F)(F)F)c(O)c(=O)c2cc1OC [Compound 43, 3-hydroxy-6,7-dimethoxy-2-(2-(trifluoromethyl)phenyl)quinolin-4(1H)-one acetate] | – | – | B (the percent of inhibition of NOX by the compounds ranges from 50% o to 79% o) | B (the percent of inhibition of NOX by the compounds ranges from 50% o to 79% o) | A (the percent of inhibition of NOX by the compounds is larger than or equals to 80%) | A (the percent of inhibition of NOX by the compounds is larger than or equals to 80%) | – | – | B (the percent of inhibition of NOX by the compounds ranges from 50% o to 79% o) | A (the percent of inhibition of NOX by the compounds is larger than or equals to 80%) | – | – | – | –
COc1cc2[nH]c(-c3ccc(Cl)cc3)c(O)c(=O)c2cc1OC [Compound 45] | – | – | – | B (the percent of inhibition of NOX by the compounds ranges from 50% o to 79% o) | – | A (the percent of inhibition of NOX by the compounds is larger than or equals to 80%) | D (the percent of inhibition of NOX by the compounds is smaller than or equals to 19% o) | – | – | – | D (the percent of inhibition of NOX by the compounds is smaller than or equals to 19% o) | C (the percent of inhibition of NOX by the compounds ranges from 2000 to 49%) | ≤ 19 | –
COc1cc2[nH]c(-c3ccccc3Cl)c(O)c(=O)c2cc1OC [Compound 46] | – | – | B (the percent of inhibition of NOX by the compounds ranges from 50% o to 79% o) | – | A (the percent of inhibition of NOX by the compounds is larger than or equals to 80%) | A (the percent of inhibition of NOX by the compounds is larger than or equals to 80%) | A (the percent of inhibition of NOX by the compounds is larger than or equals to 80%) | – | – | – | D (the percent of inhibition of NOX by the compounds is smaller than or equals to 19% o) | – | – | B (the percent of inhibition of NOX by the compounds ranges from 50% o to 79% o)
COc1cc2[nH]c(-c3ccccc3OC(F)(F)F)c(O)c(=O)c2cc1OC [Compound 48] | C (the percent of inhibition of NOX by the compounds ranges from 2000 to 49%) | B (the percent of inhibition of NOX by the compounds ranges from 50% o to 79% o) | C (the percent of inhibition of NOX by the compounds ranges from 2000 to 49%) | – | A (the percent of inhibition of NOX by the compounds is larger than or equals to 80%) | A (the percent of inhibition of NOX by the compounds is larger than or equals to 80%) | – | – | – | – | – | – | – | A (the percent of inhibition of NOX by the compounds is larger than or equals to 80%)
COc1cc2[nH]c(-c3ccc(Cl)cc3Cl)c(O)c(=O)c2cc1OC [Compound 49] | – | – | C (the percent of inhibition of NOX by the compounds ranges from 2000 to 49%) | B (the percent of inhibition of NOX by the compounds ranges from 50% o to 79% o) | A (the percent of inhibition of NOX by the compounds is larger than or equals to 80%) | A (the percent of inhibition of NOX by the compounds is larger than or equals to 80%) | A (the percent of inhibition of NOX by the compounds is larger than or equals to 80%) | ≤ 19 | – | – | – | – | – | –

Source: patent publication US11661400B2, “NADPH oxidase inhibitors, pharmaceutical composition comprising the same, and application thereof” (TAIWANJ PHARMACEUTICALS CO., LTD., priority 2018, dated 2023)
